From patent US8314126B2, “Disubstituted phenylpiperdines/piperazines as modulators of dopamine neurotransmission” (NSAB, Filial af Neurosearch Sweden AB, Sverige, priority 2004, dated 2012)
Structures can show the parent of a compound that is named as a salt.

test system: DOPAC (3,4-dihydroxyphenylacetic acid) in the rat striatum; assay: Increase of DOPAC in the rat striatum (in vivo neurochemistry); conditions: Rattus norvegicus, sc, read-out: ED50 DOPAC
From the text: After the behavioural activity sessions, the rats were decapitated and their brains rapidly taken out and put on an ice-cold petri-dish. The limbic forebrain, the striatum, the frontal cortex and the remaining hemispheral parts of each rat were dissected and frozen. Each brain part was subsequently analyzed with respect to its content of monoamines and their metabolites.
The monoamine transmitter substances (NA (noradrenaline), DA (dopamine), 5-HT (serotonin)) as well as their amine (NM (normethanephrine), 3-MT (3-methoxytyramine)) and acid (DOPAC (3,4-dihydroxylphenylacetic acid), 5-HIAA (5-hydroxyindoleacetic acid), HVA (homovamllic acid)) metabolites are quantified in brain tissue homogenates by HPLC separations and electrochemical detection
The analytical method is based on two chromatographic separations dedicated for amines or acids. Two chromatographic systems share a common auto injector with a 10-port valve and two sample loops for simultaneous injection on the two systems. Both systems are equipped with a reverse phase column (Luna C18(2), dp 3 μM, 50*2 mm i.d., Phenomenex) and electrochemical detection is accomplished at two potentials on glassy carbon electrodes (MF-1000, Bioanalytical Systems, Inc.). The column effluent is passed via a T-connection to the detection cell or to a waste outlet. This is accomplished by two solenoid valves, which block either the waste or detector outlet. By preventing the chromatographic front from reaching the detector, better detection conditions are achieved. […] Detection potentials relative to Ag/AgCl reference are 0.45 and 0.60V. […] Detection potentials relative to Ag/AgCl reference are 0.45 and 0.65V.
ED50 values for the increase of DOPAC in striatum are calculated by curve fitting.

With CCCN1CCC(c2cccc(C(F)(F)F)c2)CC1 [reference compound] as the compound, how does the ED50 read?
The ED50 was 84 µmol/kg.

same assay, conditions: sc; increase of DOPAC in rat striatum after systemic administration (s.c.); maximal effects limited to 350-400% of control; range covers 95% of fits; read-out: ED50 DOPAC

For CCN1CCC(c2cccc(C(=O)C(F)(F)F)c2F)CC1, which ED50 is on record?
The ED50 was 12 µmol/kg.

For CCN1CCC(c2cccc(S(C)(=O)=O)c2F)CC1 [drawing 10], which ED50 is on record?
Its ED50 is 68 µmol/kg.

With COCCN1CCC(c2cccc(S(C)(=O)=O)c2F)CC1 [drawing 12] as the compound, how does the ED50 read?
The ED50 was 84 µmol/kg.

With COCCN1CCC(c2cccc(S(C)(=O)=O)c2)CC1 [reference compound] as the compound, how does the ED50 read?
The ED50 was 208 µmol/kg.

test system: not given; assay: not given; conditions: not given

Which melting point does the source give for CCN1CCC(c2cccc(C(C)=O)c2F)CC1 here?
The melting point was 199 to 202 °C.

With CCN1CCC(c2cccc(S(=O)(=O)N(C)C)c2F)CC1 (as salt: fumaric acid salt) as the compound, how does the melting point read?
Its melting point is 151 to 152 °C.

With CCN1CCC(c2cccc(C(=O)C(F)(F)F)c2F)CC1 (as salt: fumaric acid salt) as the compound, how does the melting point read?
Its melting point is 109 to 110 °C.

For CCCN1CCN(c2cccc(C#N)c2C(F)(F)F)CC1 (as salt: hydrochloric acid salt), which melting point is on record?
The melting point was 234 to 236 °C.

With CCCN1CCN(c2cccc(S(C)(=O)=O)c2F)CC1 (as salt: hydrochloric acid salt) as the compound, how does the melting point read?
Its melting point is 241 to 243 °C.

Which melting point does the source give for CCN1CCC(c2cccc(S(=O)(=O)C(F)(F)F)c2F)CC1 (as salt: hydrochloric acid salt) here?
Its melting point is 189 to 191 °C.

Which melting point does the source give for CCN1CCN(c2cccc(S(C)(=O)=O)c2F)CC1 (as salt: hydrochloric acid salt) here?
The melting point was 214 to 216 °C.

Which melting point does the source give for CCCN1CCC(c2cccc(S(C)(=O)=O)c2F)CC1 (as salt: hydrochloric acid salt) [Example 1, 4-[2-FLUORO-3-(METHYLSULFONYL)PHENYL]-1-PROPYLPIPERIDINE] here?
Its melting point is 255 to 257 °C.

For CCCN1CCC(c2cccc(S(C)(=O)=O)c2Cl)CC1 (as salt: hydrochloric acid salt) [Example 3, 4-[2-CHLORO-3-(METHYLSULFONYL)PHENYL]-1-PROPYLPIPERIDINE], which melting point is on record?
Its melting point is 250 to 252 °C.

For CCCN1CCC(c2cccc(S(C)(=O)=O)c2C)CC1 (as salt: hydrochloric acid salt) [Example 4, 4-[2-METHYL-3-(METHYLSULFONYL)PHENYL]-1-PROPYLPIPERIDINE], which melting point is on record?
Its melting point is 233 to 235 °C.

Which melting point does the source give for CCCN1CCC(c2cccc(S(C)(=O)=O)c2N)CC1 (as salt: hydrochloric acid salt) [Example 6, 2-(METHYLSULFONYL)-6-(1-PROPYLPIPERIDIN-4-YL)ANILINE] here?
Its melting point is 232 to 233 °C.

For CCCN1CCC(c2cccc(C(F)(F)F)c2C#N)CC1 (as salt: hydrochloric acid salt) [Example 7, 2-(1-PROPYLPIPERIDIN-4-YL)-6-(TRIFLUOROMETHYL)BENZONITRILE], which melting point is on record?
Its melting point is 272 to 274 °C.

For CCCN1CCC(c2cccc(C(F)(F)F)c2OC)CC1 (as salt: hydrochloric acid salt) [Example 8, 4-[2-METHOXY-3-(TRIFLUOROMETHYL)PHENYL]-1-PROPYLPIPERIDINE], which melting point is on record?
The melting point was 235.5 °C.

Which melting point does the source give for CCCN1CCN(c2cccc(C(F)(F)F)c2F)CC1 (as salt: hydrochloric acid salt) [Example 9, 1-[2-FLUORO-3-(TRIFLUOROMETHYL)PHENYL]-4-PROPYLPIPERAZINE] here?
The melting point was 180 to 181 °C.

With COCCN1CCN(c2cccc(C(F)(F)F)c2F)CC1 (as salt: hydrochloric acid salt) [Example 10, 1-[2-FLUORO-3-(TRIFLUOROMETHYL)PHENYL]-4-(2-METHOXYETHYL)PIPERAZINE] as the compound, how does the melting point read?
Its melting point is 170 to 171 °C.

Which melting point does the source give for CCCN1CCN(c2cccc(Cl)c2Cl)CC1 (as salt: hydrochloric acid salt) [Example 11, 1-(2,3-DICHLOROPHENYL)-4-PROPYLPIPERAZINE] here?
Its melting point is 220 to 221 °C.

For CCCN1CCC(c2cccc(C#N)c2C(F)(F)F)CC1 (as salt: hydrochloric acid salt) [Example 13, 3-(1-PROPYLPIPERIDIN-4-YL)-2-(TRIFLUORO-METHYL)BENZONITRILE], which melting point is on record?
The melting point was 266 to 269 °C.

Which melting point does the source give for CS(=O)(=O)c1cccc(C2CCN(CCC3OCCO3)CC2)c1F (as salt: hydrochloric acid salt) [Example 26, 1-[2-(1,3-DIOXOLAN-2-YL)ETHYL]-4-[2-FLUORO-3-(METHYLSULFONYL)PHENYL]-PIPERIDINE] here?
Its melting point is 224 to 225 °C.

With OCCN1CCC(c2cccc(C(F)(F)F)c2F)CC1 (as salt: hydrochloric acid salt) [Example 27, 2-{4-[2-FLUORO-3-(TRIFLUOROMETHYL)PHENYL]PIPERIDIN-1-YL}ETHANOL] as the compound, how does the melting point read?
The melting point was 224 to 226 °C.

With CCCN1CCC(c2cccc(C(F)(F)F)c2O)CC1 (as salt: hydrochloric acid salt) [Example 29, 2-(1-PROPYLPIPERIDIN-4-YL)-6-(TRIFLUOROMETHYL)PHENOL] as the compound, how does the melting point read?
The melting point was 218 to 220 °C.

Which melting point does the source give for CCCN1CCC(c2cccc(OC(F)(F)F)c2O)CC1 (as salt: hydrochloric acid salt) [Example 30, 2-(1-PROPYLPIPERIDIN-4-YL)-6-(TRIFLUOROMETHOXY)PHENOL] here?
Its melting point is 203 to 205 °C.

For OCCCN1CCC(c2cccc(C(F)(F)F)c2F)CC1 (as salt: hydrochloric acid salt) [Example 32, 3-{4-[2-FLUORO-3-(TRIFLUOROMETHYL)PHENYL]PIPERIDIN-1-YL}PROPAN-1-OL], which melting point is on record?
The melting point was 259 to 261 °C.

For C=CCN1CCC(c2cccc(S(C)(=O)=O)c2F)CC1 (as salt: hydrochloric acid salt) [Example 40, 1-ALLYL-4-[2-FLUORO-3-(METHYLSULFONYL)PHENYL]PIPERIDINE], which melting point is on record?
Its melting point is 259 to 261 °C.

For COCCN1CCC(c2cccc(C(F)(F)F)c2F)CC1 (as salt: hydrochloric acid salt) [Example 47, 4-[2-FLUORO-3-(TRIFLUOROMETHYL)PHENYL]-1-(2-METHOXYETHYL)PIPERIDINE], which melting point is on record?
Its melting point is 180 to 181 °C.

Which melting point does the source give for C=CCN1CCC(c2cccc(C(F)(F)F)c2F)CC1 (as salt: hydrochloric acid salt) [Example 70, 1-ALLYL-4-[2-FLUORO-3-(TRIFLUOROMETHYL)PHENYL]PIPERIDINE] here?
Its melting point is 224 to 226 °C.

For CCCN1CCC(c2cccc(C(F)(F)F)c2F)CC1 (as salt: hydrochloric acid salt) [Example 71, 4-[2-FLUORO-3-(TRIFLUOROMETHYL)PHENYL]-1-PROPYLPIPERIDINE], which melting point is on record?
Its melting point is 258 to 260 °C.

Which melting point does the source give for CCN1CCC(c2cccc(S(C)(=O)=O)c2Cl)CC1 (as salt: hydrochloride) [Example 28, 4-[2-CHLORO-3-(METHYLSULFONYL)PHENYL]-1-ETHYLPIPERIDINE] here?
The melting point was 264 to 265 °C.

Which melting point does the source give for CCN1CCC(c2cccc(S(C)(=O)=O)c2F)CC1 (as salt: maleic acid salt) [Example 2, 1-ETHYL-4-[2-FLUORO-3-(METHYLSULFONYL)PHENYL]-PIPERIDINE] here?
Its melting point is 112 to 113 °C.

For CCN1CCC(c2cccc(OS(=O)(=O)C(F)(F)F)c2F)CC1 (as salt: methanesulfonate) [Example 34, 3-(1-ETHYLPIPERIDIN-4-YL)-2-FLUOROPHENYL TRIFLUOROMETHANESULFONATE], which melting point is on record?
The melting point was 158 to 159 °C.

test system: drug-naive rats; assay: Locomotor activity in drug-naive rats; conditions: drug-naive habituated rats, 11 μmol/kg, recorded between 30 and 60 minutes, ± SEM

For CCN1CCC(c2cccc(S(C)(=O)=O)c2F)CC1 [drawing 36], which Locomotor activity is on record?
The Locomotor activity was 2254 ± 804 counts/30 min.

For COCCN1CCC(c2cccc(S(C)(=O)=O)c2F)CC1 [drawing 38], which Locomotor activity is on record?
Its Locomotor activity is 1836 ± 504 (P = 0.064) counts/30 min.

same assay, conditions: drug-naive habituated rats, 33 μmol/kg, recorded between 30 and 60 minutes, ± SEM

With CCN1CCC(c2cccc(S(C)(=O)=O)c2F)CC1 [drawing 36] as the compound, how does the Locomotor activity read?
The Locomotor activity was 2499 ± 766 (P = 0.1) counts/30 min.

For COCCN1CCC(c2cccc(S(C)(=O)=O)c2F)CC1 [drawing 38], which Locomotor activity is on record?
Its Locomotor activity is 1258 ± 623 counts/30 min.

same assay, conditions: drug-naive habituated rats, 100 μmol/kg, recorded between 30 and 60 minutes, ± SEM

Which Locomotor activity does the source give for CCN1CCC(c2cccc(S(C)(=O)=O)c2F)CC1 [drawing 36] here?
Its Locomotor activity is 2418 ± 703 (P = 0.1) counts/30 min.

With COCCN1CCC(c2cccc(S(C)(=O)=O)c2F)CC1 [drawing 38] as the compound, how does the Locomotor activity read?
The Locomotor activity was 1085 ± 211 counts/30 min.

same assay, conditions: drug-naive rats, 11 μmol/kg, recorded for 60 minutes, ± SEM

With CCN1CCC(c2cccc(S(C)(=O)=O)c2F)CC1 [drawing 29] as the compound, how does the Locomotor activity read?
The Locomotor activity was 13113 ± 1795 counts/60 min.

same assay, conditions: drug-naive rats, 33 μmol/kg, recorded for 60 minutes, ± SEM

Which Locomotor activity does the source give for CCN1CCC(c2cccc(S(C)(=O)=O)c2F)CC1 [drawing 29] here?
The Locomotor activity was 12744 ± 1291 counts/60 min.

same assay, conditions: drug-naive rats, 100 μmol/kg, recorded for 60 minutes, ± SEM

With CCN1CCC(c2cccc(S(C)(=O)=O)c2F)CC1 [drawing 29] as the compound, how does the Locomotor activity read?
The Locomotor activity was 12530 ± 2577 counts/60 min.
